Assay results from US20080124404A1 (priority 2006, published 2008).
Entries after “also recorded” stand apart in the source; their conditions may differ.

Tests used:
LDLR mRNA [1] = experiment: Northern blot analysis of LDLR mRNA expression in HepG2 cells; format: cell-based, human; conditions: each alkaloid 20 μg/ml, 8 h
Description: . The membrane was stripped and hybridized to a human GAPDH probe. The figure shown is representative of 3 separate studies.
FIG. 2 illustrates the comparison of dose-dependent effects of CND and BBR on LDLR mRNA expression. HepG2 cells were treated with CND or BBR for 8 h at the indicated concentrations and total RNA was isolated for analysis of LDLR mRNA and GAPDH mRNA expression by northern blot (FIG. 2, Panel A) and real-time PCR assays (FIG. 2, Panel B).
(§1) Quantitation of LDLR mRNA expression by northern blot analysis and real-time PCR. Isolation of total RNA and analysis of LDLR and GAPDH mRNA by northern blot were performed as previously described (Liu, J et al. J. Lipid Res. 1997, 38: 2035-2048). Differences in hybridization signals of northern blots were quantitated by a PhosphoImager. For quantitative real-time PCR assays, the reverse transcription was conducted with random primers using M-MLV (Promega) at 37° C. for 1 h in a volume of 25 u.1 containing 1 μg of total RNA. Real-time PCR was performed on the cDNA using ABI Prism 7900-HT Sequence Detection System and Universal MasterMix. The human and hamster LDLR and GAPDH Pre-Developed TaqMan Assay Reagents (Applied Biosystems) were used to assess the mRNA expressions in HepG2 and in hamster livers. The MDR1 mRNA expression in HepG2 cells was assayed similarly using the Pre-Developed probes from Applied Biosystems.
. HPLC/UV-DAD spectroscopic comparisons with standard solutions were used to confirm the presence of BBR, CND, HDT, and HDTN, as well as the absence of PMT. Concentrations of CND and HDT in sample extracts were determined using a single-point calibration and concentrations of BBR in sample extracts were calculated using a standard curve. The identities of BBR, CND, and HDT in extracts were verified further by LC-MS analysis. […]. […]. The results of northern blots were independently confirmed by real-time quantitative RT-PCR (FIG. 1C). […]. […].

DNA = conditions: cited from earlier work
LDLR mRNA [2] = experiment: Real-time quantitative RT-PCR of LDLR mRNA expression in HepG2 cells; format: cell-based, human; conditions: HepG2, 8 h
liver cells = experiment: Cell survival by MTT (Cell Proliferation Kit I); format: cell-based; conditions: different concentrations, 18 h
Description: The toxicity of CND and BBR were compared using a cell-based assay. Cell survival rate under drug treatments were determined by Cell Proliferation Kit I (MTT) obtained from Roche Applied Sciences (Indianapolis, Ind.). Cells were seeded in 96-well plates at a density of 5×10^3 cells/well/ in 100 μl medium supplemented with 10% FBS at 37° C. and 5% CO2. After 24 h, cells were incubated with fresh medium containing different concentrations of BBR or CND for 18 h. At the end of drug treatment, 10 μl of MTT labeling reagent per well was added to cells to reach a concentration of 0.5 mg/ml. After a 4 h-reaction, 100 μl of solubilization solution was added to each well and the plate was incubated at 37° C. overnight. The sample spectraphotometrical absorbance was measured by a microplate reader at the wavelength of 550 nm. The reading of sample without drug treatment was defined as 100% survival and readings from drug-treated samples were plotted relative to that value. Quadruple wells were used in each culture condition.

LDLR promoter = LDLR promoter dual luciferase reporter assay (pLDLR234Luc) in HepG2 cells; format: cell-based, human; conditions: 8 h
Description: FIG. 1E: Analysis of LDLR promoter activity: HepG2 cells were cotransfected with pLDLR234Luc and a normalizing vector pRL-SV40. […] Firefly luciferase and renilla luciferase activities were measured. The data represent normalized LDLR promoter activity.
Transient transfection and dual luciferase reporter assays. HepG2 cells were transfected with plasmid DNA (100 ng/well) by using FuGENE 6 transfection reagent. The DNA ratio of pLDLR234Luc (Li, C et al. J. Biol. Chem. 1999, 274: 6747-6753) to renilla luciferase reporter pRL-SV40 was 90:10. Twenty h after transfection, medium was changed to 0.5% FBS and drugs were added for 8 h prior to cell lysis. The luciferase activity in cell lysate was measured using Dual Luciferase Assay System obtained from Promega. Triplicate wells were assayed for each transfection condition.

LDLR mRNA [3] = experiment: LDLR mRNA stability under actinomycin D in HepG2 cells (real-time RT-PCR); format: cell-based, human; conditions: HepG2, actinomycin D 5 μg/ml 30 min before, BBR or CND 15 μg/ml, 4 h
[4] = target: MDR1 transporter (pgp-170) (Homo sapiens, UniProt P08183)
Sequence of MDR1 transporter (pgp-170) (P08183 whole entry): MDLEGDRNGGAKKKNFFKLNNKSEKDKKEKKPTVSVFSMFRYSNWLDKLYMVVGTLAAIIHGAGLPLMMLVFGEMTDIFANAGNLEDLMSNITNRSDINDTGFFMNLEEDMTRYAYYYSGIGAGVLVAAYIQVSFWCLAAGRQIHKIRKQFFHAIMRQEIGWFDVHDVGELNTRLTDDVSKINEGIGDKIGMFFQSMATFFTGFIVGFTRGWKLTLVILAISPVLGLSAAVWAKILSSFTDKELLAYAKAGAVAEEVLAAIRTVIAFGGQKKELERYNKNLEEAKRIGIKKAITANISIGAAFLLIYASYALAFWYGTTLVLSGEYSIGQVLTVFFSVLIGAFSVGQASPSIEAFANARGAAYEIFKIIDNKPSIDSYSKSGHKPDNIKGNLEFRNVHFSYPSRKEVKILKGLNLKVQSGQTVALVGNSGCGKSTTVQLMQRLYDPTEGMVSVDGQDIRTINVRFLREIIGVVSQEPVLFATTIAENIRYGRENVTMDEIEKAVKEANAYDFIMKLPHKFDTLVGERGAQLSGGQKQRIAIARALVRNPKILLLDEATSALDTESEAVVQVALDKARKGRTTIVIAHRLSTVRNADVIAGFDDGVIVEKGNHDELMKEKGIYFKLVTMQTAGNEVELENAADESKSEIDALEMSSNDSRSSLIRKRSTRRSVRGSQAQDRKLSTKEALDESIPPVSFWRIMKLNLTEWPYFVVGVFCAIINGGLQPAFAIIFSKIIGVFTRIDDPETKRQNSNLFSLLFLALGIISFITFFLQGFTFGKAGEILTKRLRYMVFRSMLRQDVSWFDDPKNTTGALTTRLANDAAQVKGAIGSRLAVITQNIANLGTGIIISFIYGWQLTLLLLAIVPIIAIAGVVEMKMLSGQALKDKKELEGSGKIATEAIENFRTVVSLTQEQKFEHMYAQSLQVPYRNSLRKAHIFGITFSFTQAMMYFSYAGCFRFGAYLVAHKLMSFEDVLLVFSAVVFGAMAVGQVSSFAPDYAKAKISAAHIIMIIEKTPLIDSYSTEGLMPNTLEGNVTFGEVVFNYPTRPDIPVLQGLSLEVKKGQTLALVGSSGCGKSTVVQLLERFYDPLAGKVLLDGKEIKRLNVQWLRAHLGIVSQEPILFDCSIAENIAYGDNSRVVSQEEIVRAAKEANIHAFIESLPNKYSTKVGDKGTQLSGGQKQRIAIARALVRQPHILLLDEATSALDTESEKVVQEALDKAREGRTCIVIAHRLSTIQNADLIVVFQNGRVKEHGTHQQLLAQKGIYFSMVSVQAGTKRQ

MDR1 = MDR1 (Homo sapiens, UniProt P08183); experiment: MDR direct dye efflux assay with DiOC2(3) in HepG2 cells; conditions: HepG2, co-incubation 2 h, CND 15 μg/ml
Sequence of MDR1 (P08183 whole entry): as above
Description: MDR direct dye efflux assay. The MDR Direct Dye Efflux Assay kit (Cat. No. ECM910, Chemicon International Inc., Temecula, Calif.) was used to measure MDR1 activity. HepG2 cells seeded in 6-well culture plates were incubated in efflux buffer (RPMI+2% BSA) and 1 μg/ml of DiOC2(3) in the absence of presence of tested compounds at 37° C. for 2 h.

ERK [5] = experiment: Western blot of phosphorylated ERK in HepG2 cells; format: cell-based, human; conditions: HepG2, BBR, HDT or CND 20 μg/ml, 2 h
LDLR mRNA [6] = experiment: LDLR mRNA expression with MDR1 blocked by verapamil or MDR1 siRNA in HepG2 cells (real-time PCR); format: cell-based, human
Description: as §1, with “Isolation of total RNA and analysis of LDLR and GAPDH mRNA by northern blot were performed as previously described (Liu, J et al. J. Lipid Res. 1997, 38: 2035-2048).” left out
Small interference RNA (siRNA) transfection.

[7] = 32 hypercholesterolemic patients, oral, 1 g daily, 3 months; cited from earlier work
LDLR mRNA [8] = experiment: Hepatic LDLR mRNA expression in HFHC-fed hamsters (quantitative real-time RT-PCR); format: in vivo, Golden Syrian hamsters; conditions: BBR 1.8 mg/d, end of 24-day treatment, n=6, p<0.0001
[9] = Measurement of hepatic cholesterol and TG in HFHC-fed hamsters; conditions: BBR 1.8 mg/animal/d
HepG2 cells = experiment: BBR uptake assay, intracellular fluorescence by FACS in HepG2 cells; conditions: HepG2, 5 min incubation, BBR 15 μg/ml
ERK [10] = experiment: Western blot of phosphorylated ERK in hamster liver; format: in vivo, Golden Syrian hamsters; conditions: pooled liver samples per treatment group (n=9), HFHC hamsters
[11] = Body weight, food intake and adverse effects in HFHC-fed hamsters; format: in vivo, Golden Syrian hamsters; conditions: 24 day treatment, control animals increased by 10%
Description: . The body weight of hamsters under a HFHC diet in untreated and drug-treated animals at indicated doses were monitored on alternate days (FIG. 11, Panel A). The food intake within 24 h period were measured 2-3 times a week throughout the entire experiment (FIG. 11, Panel B). The data are means±S.D. of 3 cages per group.
Goldenseal in vivo studies. 42 male Golden Syrian hamsters at 6-8 weeks of age were purchased from the Charles River Laboratories and were housed in cages (3 animals/cage) in an air-conditioned room with a 12 h light cycle. Animals had free access to autoclaved water and food. After one week on a regular rodent chow diet, 36 hamsters were switched to a rodent HFHC diet containing 1.25% cholesterol and 2.2% fat (Product # D12108, Research Diet, Inc., New Brunswick, N.J.) and 6 hamsters were fed a control normal diet containing 0.37% fat and no cholesterol (Product # D12102, Research Diet, Inc.). […]. Berberine Chloride was dissolved in the same vehicle solution. Four hours after the last drug treatment, all animals were sacrificed. Blood samples were collected through cardiac puncture and were analyzed for liver function, kidney function, and blood chemistry at DEXX Laboratories (Palo Alto, Calif.). […] After staining, tissue sections were evaluated by a veterinary pathologist and an experienced scientist independently. […]

CN1CCc2cc3c(cc2C1O)OCO3 (stereo not shown) [HDTN, hydrastinine]
LDLR mRNA expression (northern blot) (LDLR mRNA [1]): no effects

COc1ccc2c(c1OC)C(=O)O[C@@H]2[C@H]1c2cc3c(cc2CCN1C)OCO3 [HDT, β-hydrastine]
LDLR mRNA expression (northern blot) (LDLR mRNA [1]): no effects

COc1ccc2c(c1OC)CN1CCc3cc4c(cc3[C@H]1C2)OCO4 [CND, canadine]
DNA binding (DNA): does not bind to DNA
dose-dependent effect on LDLR mRNA expression, CND compared with BBR (LDLR mRNA [2]; similar concentration ranges, northern blot and real-time RT-PCR): greater activity than BBR; also recorded: more potent inducer of LDLR expression
toxicity to liver cells (cell survival, MTT), CND compared with BBR (liver cells): less toxic to liver cells than berberine (BBR)
LDLR promoter activity (LDLR promoter; HepG2, BBR or CND 15 μg/ml): not affected at all
LDLR mRNA increase compared to control under transcriptional suppression (LDLR mRNA [3]): ~2.5 fold
MDR1 substrate status ([4]; inferred from lack of VRMP effect on activity in HepG2): not a substrate of MDR1
efflux of DiOC2(3) (MDR1): no inhibitory effect
LDLR mRNA expression (northern blot) (LDLR mRNA [1]): strong inducers
ERK phosphorylation (ERK [5]): attributable to CND and BBR
fold increase in activity on LDLR mRNA in the presence of VRMP vs absence (LDLR mRNA [6]; HepG2, 0.6 μM VRMP, 8 h, 3 separate experiments, mean±S.D.): 0.82±0.34 fold
effect of MDR1 siRNA transfection on activity in elevation of LDLR mRNA level (LDLR mRNA [6]; HepG2, siRNA 3 days, drug 6 h): not affected

COc1cc2c(cc1OC)-c1cc3ccc(OC)c(OC)c3c[n+]1CC2 [PMT, palmatine]
DNA binding (DNA): strong DNA binding affinities
LDLR mRNA expression (northern blot) (LDLR mRNA [1]): no regulatory activity on LDLR expression; also recorded: no effects

COc1ccc2cc3[n+](cc2c1OC)CCc1cc2c(cc1-3)OCO2 [BBR, berberine]
DNA binding (DNA): strong DNA binding affinities
increase in LDLR mRNA expression (LDLR mRNA [2]; BBR 20 μg/ml): 3 fold
reduction of LDL-c [7]: 25%
reduction of plasma total cholesterol (TC) [7]: 29%
reduction of triglyceride (TG) [7]: 35%
side effects [7]: without side effects
LDLR mRNA increase compared to control under transcriptional suppression (LDLR mRNA [3]): ~2.5 fold
increase in hepatic LDLR mRNA expression (LDLR mRNA [8]): 3.7 fold
hepatic TC, % of control [9]: 68.7 % of control
hepatic TG, % of control [9]: 78.3 % of control
increase of intracellular fluorescent intensity (HepG2 cells): ~2 fold
increase in BBR uptake in MDR1 siRNA transfected cells compared to mock transfected cells ([4]; human, 2 h, 15 μg/ml): 49%
increase in fluorescent intensity on blocking MDR1 activity with VRMP ([4]; human, 2 h, 15 μg/ml): 49%
LDLR mRNA expression (northern blot) (LDLR mRNA [1]): strong inducers
ERK phosphorylation (ERK [5]): attributable to CND and BBR
levels of phosphorylated ERK in liver (ERK [10]): greatly elevated
body weights [11]: unchanged

COc1ccc(CCN(C)CCCC(C#N)(c2ccc(OC)c(OC)c2)C(C)C)cc1OC (stereo not shown) [VRMP, verapamil]
effect of VRMP itself on the LDLR mRNA level (LDLR mRNA [6]): little effect

B1: OM: cytokine oncostatin M, known activator of the LDLR promoter (protein, UniProt P13725 26-221, looked up)
Oncostatin-M: AAIGSCSKEYRVLLGQLQKQTDLMQDTSRLLDPYIRIQGLDVPKLREHCRERPGAFPSEETLRGLGRRGFLQTLNATLGCVLHRLADLEQRLPKAQDLERSGLNIEDLEKLQMARPNILGLRNNIYCMAQLLDNSDTAEPTKAGRGASQPPTPTPASDAFQRKLEGCRFLHGYHRFMHSVGRVFSKWGESPNRSRR
LDLR promoter activity (LDLR promoter; HepG2, OM 50 ng/ml): strongly elevated
